Reference: publication PMC4819177, “The rational search for selective anticancer derivatives of the peptide Trichogin GA IV: a multi-technique biophysical approach” (Scientific Reports, 2016)
“Also recorded” adds a separate entry of the source. Square brackets hold non-standard residues; d marks the D form. Peptide text beside a SMILES is read from it. * marks the point of attachment. TOAC = CC1(C)CC(N)(C(=O)O)CC(C)(C)N1[O]; Leu(ol) = CC(C)C[C@H](N)CO; Octanoyl = CCCCCCCC(=O)*; Api = NC1(C(=O)O)CCNCC1; Aib = CC(C)(N)C(=O)O

How the values were obtained:
HeLa cells [1] = type: cell-based, human; conditions: MTT, 24 h exposure; average error about ±2 μM
Protocol: (§1) We studied the effect of TG and its analogues on normal (HDF) and transformed (T67 and HeLa) cells. The cellular viability was assessed after 24 hours of exposure to the peptides by the MTT assay (Table 1).
(§2) Culture media, foetal bovine serum (FBS) and antibiotics were purchased from Carlo Erba Dasit Group. The T67 human glioma cell line was derived by Lauro et al.[49] from a World Health Organization (WHO) Grade III gemistocytic astrocytoma. Human dermal fibroblasts (HDF) were obtained by ATCC. HDF were cultured in Fibroblast Basal Medium (ATCC) supplemented with 10% FBS. T67 and HeLa cells were cultured in Dulbecco’s modified Eagle’s medium (MMedical) supplemented with 10% FBS, 100 UI/ml penicillin, 100 μg/ml streptomycin, and 40 μg/ml gentamycin, and kept in a 5% CO2 atmosphere at 37 °C, with saturating humidity. Cell viability and number were measured by trypan blue exclusion method.
(§3) Cytotoxicity of peptides was estimated using a MTT assay. All the chemicals used for this assay have been purchased by sigma Aldrich and used without further purification. T67, HeLa and HDF cells were seeded in 24-well plates at 1 × 10^5 cells/well. Experiments were performed after 24 h of incubation at 37 °C in 5% CO2. After this time cells were washed and treated for 24 h with different concentrations of peptides; the cells are then incubated for 60 mins with 300 μM of MTT in culture medium. The absorbance of each well was measured at 450 nm with a spectrofluorometer (Wallac Victor multilabel counter; Perkin-Elmer Inc., Boston, MA, USA). Data are reported as the mean ± standard deviation of at least three independent experiments.

[2] = tested on: T67 human glioma cell line; type: cell-based; conditions: MTT, 24 h exposure; average error about ±2 μM
Protocol: as §1, §2, §3

[3] = tested on: human dermal fibroblasts (HDF); type: cell-based; conditions: MTT, 24 h exposure; average error about ±2 μM
Protocol: as §1, §2, §3

T67, HeLa and HDF cells = assay: MTT cytotoxicity assay, summary over the three cell lines; type: cell-based, human; conditions: 24 h
Protocol: as §1, §3

[4] = Dynamic light scattering of POPC SUV with peptides; type: physicochemical; conditions: POPC SUV 2 mM, P:L 1:100
Protocol: The dimension of the SUV prepared by sonication was verified by dynamic light scattering (DLS). Additionally we checked if the peptides at a P:L ratio 1:100, the ratio used for EPR experiments, alter the dimension of the SUV. The experiments were perfomed on POPC SUV (2 mM) with and without peptides. We chose a toxic peptide, [Arg^2] TG, and a non-toxic peptide, [Leu^4] TG. The average diameter of the SUV in this preparation is about 21±6 nm (when counting the size distribution by numer).

HeLa cells [5] = assay: Fluorescence microscopy of FITC-labelled peptides; type: cell-based, human; conditions: 0.5 μM, 3 hours; for state of the cells / membrane lysis: bright field; for cellular localization of the fluorescent label: green fluorescence
Protocol: HeLa cells were treated for 3 hours with 0.5 μM of TG and [Lys^6] […] The cells treated with [FITC^11] […] Conversely, treatment with [Lys^6, FITC^11] […] It has been shown that some AMP act not on the plasma membrane, but on the mitochondria.
HeLa cells were washed with PBS (NaCl 137 mM, KCl 2.7 mM, Na2HPO4 10 mM, KH2PO4 1.8 mM, pH 7.4), detached with 0.05% trypsin–EDTA solution and centrifuged for 3 min at 300 × g. The pellet was resuspended in DMEM medium and cells were counted by using trypan blue exclusion method. Then, 5 × 10^3 cells were seeded on custom chambers[58] with glass bottom, in 100 μL of complete DMEM medium and incubated at 37 °C in a humidified atmosphere with 5% CO2. After 24 h, cells were washed with PBS and incubated for 3 hours with […] of [FITC^11] TG and [Lys^6, FITC^11] TG dissolved in DMEM. After this time, cells were carefully washed with PBS, then 50 μL of PBS supplemented with calcium and magnesium (NaCl 137 mM, KCl 2.7 mM, Na2HPO4 10 mM, KH2PO4 1.8 mM, CaCl2 1 mM, MgCl2 0.5 mM, pH 7.4) was added to each chamber. Finally, chambers were mounted on the microscope stage for analysis. Micrographs were acquired on a Zeiss Axiovert 200 inverted microscope equipped with XBO xenon 75 W short arc lamp and a Photometrics Coolsnap FX CCD camera (Roper Scientific) with Metafluor Imaging Software version 6.1r6 (Universal Imaging Inc.) at λexc = 500 nm, λem = 545 nm.
We performed fluorescence microscopy experiments with rhodamine, which selectively stains mitochondria, to exclude that TG analogs penetrate inside the mitochondria and are localized only on the plasmatic membrane. Rhodamine staining is shown in FigureS5.B in red. The merged images of the experiments on [FITC^11]

Row | Compound | EC50 (HeLa cells [1]) [µM] | EC50 [2] [µM] | EC50 [3] [µM] | also measured
1 | CCCCCCCC(=O)NC(C)(C)C(=O)NCC(=O)N[C@@H](CC(C)C)C(=O)NC(C)(C)C(=O)NCC(=O)NCC(=O)N[C@@H](CC(C)C)C(=O)NC(C)(C)C(=O)NCC(=O)N[C@H](C(=O)N[C@H](CO)CC(C)C)[C@@H](C)CC [TG, 1-Oct-Aib-Gly-Leu-Aib-Gly-Gly-Leu-Aib-Gly-Ile-Lol, reference compound] (Octanoyl-[Aib]GL[Aib]GGL[Aib]GI[Leu(ol)]) | 8 | 2 | 4 | –
2 | CCCCCCCC(=O)NC(C)(C)C(=O)NCC(=O)N[C@@H](CC(C)C)C(=O)NC(C)(C)C(=O)NCC(=O)NCC(=O)N[C@@H](CC(C)C)C(=O)NC1(C(=O)NCC(=O)N[C@H](C(=O)N[C@H](CO)CC(C)C)[C@@H](C)CC)CCNCC1 [[Api^8] TG, Oct-UGLUGGLZGI-Lol] (Octanoyl-[Aib]GL[Aib]GGL[Api]GI[Leu(ol)]) | > 20 | – | > 20 | cytotoxicity / selectivity in words (T67, HeLa and HDF cells): selective cytotoxicity towards a cancer cell line
3 | CCCCCCCC(=O)NC(C)(C)C(=O)N[C@@H](CCCNC(=N)N)C(=O)N[C@@H](CC(C)C)C(=O)NC(C)(C)C(=O)NCC(=O)NCC(=O)N[C@@H](CC(C)C)C(=O)NC(C)(C)C(=O)NCC(=O)N[C@H](C(=O)N[C@H](CO)CC(C)C)[C@@H](C)CC [[Arg^2] TG, Oct-URLUGGLUGI-Lol] (Octanoyl-[Aib]RL[Aib]GGL[Aib]GI[Leu(ol)]) | 4 | 8 | 8 | DLS Distribution by Number Peak 1, diameter [4]: 24 nm; DLS Distribution by Number Peak 1, fraction [4]: 100%; DLS Distribution by Volume Peak 1, diameter [4]: 28 nm; DLS Distribution by Volume Peak 1, fraction [4]: 92%; DLS Distribution by Volume Peak 2, diameter [4]: 5430 nm; DLS Distribution by Volume Peak 2, fraction [4]: 3%; DLS Distribution by Volume Peak 3, diameter [4]: 135 nm; DLS Distribution by Volume Peak 3, fraction [4]: 5%; effect of peptide on the dimension of the vesicles [4]: does not alter the dimension of the vesicles in a significant way
4 | CCCCCCCC(=O)NC(C)(C)C(=O)NCC(=O)N[C@@H](CC(C)C)C(=O)NC(C)(C)C(=O)NCC(=O)N[C@@H](CCCCN)C(=O)N[C@@H](CC(C)C)C(=O)NC(C)(C)C(=O)NCC(=O)N[C@H](C(=O)N[C@H](CO)CC(C)C)[C@@H](C)CC [[Lys^6] TG, Oct-UGLUGKLUGI-Lol] | 2 | 4 | 2 | –
5 | CCCCCCCC(=O)NC1(C(=O)N[C@@H](CCCNC(=N)N)C(=O)N[C@@H](CC(C)C)C(=O)NC(C)(C)C(=O)NCC(=O)NCC(=O)N[C@@H](CC(C)C)C(=O)NC(C)(C)C(=O)NCC(=O)N[C@H](C(=O)N[C@H](CO)CC(C)C)[C@@H](C)CC)CC(C)(C)N([O])C(C)(C)C1 [[TOAC^1, Arg^2] TG, Oct-XRLUGGLUGI-Lol] (Octanoyl-[TOAC]RL[Aib]GGL[Aib]GI[Leu(ol)]) | 9 | 8 | 15 | –
6 | CCCCCCCC(=O)NC1(C(=O)NCC(=O)N[C@@H](CC(C)C)C(=O)NC(C)(C)C(=O)NCC(=O)NCC(=O)N[C@@H](CC(C)C)C(=O)NC(C)(C)C(=O)N[C@@H](CCCNC(=N)N)C(=O)N[C@H](C(=O)N[C@H](CO)CC(C)C)[C@@H](C)CC)CC(C)(C)N([O])C(C)(C)C1 [[TOAC^1, Arg^9] TG, Oct-XGLUGGLURI-Lol] (Octanoyl-[TOAC]GL[Aib]GGL[Aib]RI[Leu(ol)]) | 5 | 8 | 8 | –
7 | CCCCCCCC(=O)NC1(C(=O)NCC(=O)N[C@@H](CC(C)C)C(=O)N[C@@H](CC(C)C)C(=O)NCC(=O)NCC(=O)N[C@@H](CC(C)C)C(=O)NC(C)(C)C(=O)NCC(=O)N[C@H](C(=O)N[C@H](CO)CC(C)C)[C@@H](C)CC)CC(C)(C)N([O])C(C)(C)C1 [[TOAC^1, Leu^4] TG, Oct-XGLLGGLUGI-Lol] (Octanoyl-[TOAC]GLLGGL[Aib]GI[Leu(ol)]) | – | – | – | cytotoxicity / selectivity in words (T67, HeLa and HDF cells): no toxicity
8 | CCCCCCCC(=O)NC1(C(=O)NCC(=O)N[C@@H](CC(C)C)C(=O)NC(C)(C)C(=O)N[C@@H](CCCCN)C(=O)N[C@@H](CCCCN)C(=O)N[C@@H](CC(C)C)C(=O)NC(C)(C)C(=O)NCC(=O)N[C@H](C(=O)N[C@H](CO)CC(C)C)[C@@H](C)CC)CC(C)(C)N([O])C(C)(C)C1 [[TOAC^1, Lys^5,6] TG, Oct-XGLUKKLUGI-Lol] | 6 | 10 | 15 | –
9 | CCCCCCCC(=O)NC1(C(=O)NCC(=O)N[C@@H](CC(C)C)C(=O)NC(C)(C)C(=O)NCC(=O)N[C@@H](CCCCN)C(=O)N[C@@H](CC(C)C)C(=O)NC(C)(C)C(=O)NCC(=O)N[C@H](C(=O)N[C@H](CO)CC(C)C)[C@@H](C)CC)CC(C)(C)N([O])C(C)(C)C1 [[TOAC^1, Lys^6] TG, Oct-XGLUGKLUGI-Lol] | 3 | 1 | 5 | cytotoxicity / selectivity in words (T67, HeLa and HDF cells): most toxic peptide on all the cell lines
10 | Oct-UGLLGGLUGI-Lol [[Leu^4] TG] | > 20 | > 20 | > 20 | DLS Distribution by Number Peak 1, diameter [4]: 20 nm; DLS Distribution by Number Peak 1, fraction [4]: 100%; DLS Distribution by Volume Peak 1, diameter [4]: 30 nm; DLS Distribution by Volume Peak 1, fraction [4]: 96%; DLS Distribution by Volume Peak 2, diameter [4]: 4993 nm; DLS Distribution by Volume Peak 2, fraction [4]: 4%; effect of peptide on the dimension of the vesicles [4]: does not alter the dimension of the vesicles in a significant way
11 | Oct-UGLUGGLUGIL-FITC [[FITC^11] TG] | – | – | – | state of the cells / membrane lysis (HeLa cells [5]): keeps the cells intact; also recorded: largely intact; cellular localization of the fluorescent label (HeLa cells [5]): mainly located in the outer plasma membrane; colocalization with rhodamine (mitochondria) (HeLa cells [5]; rhodamine staining): no significant colocalization
12 | Oct-UGLUGKLUGIL- FITC [[Lys^6, FITC^11] TG] | – | – | – | state of the cells / membrane lysis (HeLa cells [5]): severe membrane lysis; cellular localization of the fluorescent label (HeLa cells [5]): mainly located in the outer plasma membrane
13 | Oct-XGLUGGLLGI-Lol [[TOAC^1, Leu^8] TG] | > 20 | > 20 | > 20 | –
